According to patent publication US20160244437A1, “SUBSTITUTED PHENYLALANINE DERIVATIVES” (BAYER PHARMA AKTIENGESELLSCHAFT, priority 2013, published 2016):
Counter-ions that a name gives are not always drawn.

Tests used:
[1] = target: T1, human factor XIa (Homo sapiens, UniProt P03951); assay: Measurement of FXIa inhibition (fluorogenic peptide substrate Boc-Glu(OBzl)-Ala-Arg-AMC); assay type: biochemical; details: factor XIa from Kordia 0.45 nM, 15 min pre-incubation, 30 min at 22° C., fluorescence
T1 construct: purchased Kordia
Protocol: The factor XIa inhibition of the substances according to the invention is determined using a biochemical test system which utilizes the reaction of a peptidic factor XIa substrate to determine the enzymatic activity of human factor XIa. Here, factor XIa cleaves from the peptic factor XIa substrate the C-terminal aminomethylcoumarin (AMC), the fluorescence of which is measured. The determinations are carried out in microtitre plates.
Test substances are dissolved in dimethyl sulphoxide and serially diluted in dimethyl sulphoxide (3000 μM to 0.0078 μM; resulting final concentrations in the test: 50 μM to 0.00013 μM). In each case 1 μl of the diluted substance solutions is placed into the wells of white microtitre plates from Greiner (384 wells). Subsequently, the following are added successively: 20 μl of assay buffer (50 mmol/l Tris buffer pH 7.4; 100 mmol/l sodium chloride; 5 mmol/l calcium chloride; 0.1% bovine serum albumin) and 20 μl of factor XIa from Kordia (0.45 nM in assay buffer). After 15 min of incubation, the enzyme reaction is started by addition of 20 μl of the factor XIa substrate Boc-Glu(OBzl)-Ala-Arg-AMC dissolved in assay buffer (10 μM in assay buffer) from Bachem, the mixture is incubated at room temperature (22° C.) for 30 min and fluorescence is then measured (excitation: 360 nm, emission: 460 nm). The measured emissions of the test batches with test substance are compared to those of control batches without test substance (only dimethyl sulphoxide instead of test substance in dimethyl sulphoxide), and IC50 values are calculated from the concentration/activity relationships.

[2] = system: human and animal plasma; assay: Determination of anticoagulatory activity: activated partial thromboplastin time (aPTT) in plasma; details: concentration of test substance which brings about a 1.5-fold extension of the aPTT; plasma in vitro, C.K. Prest kit
Protocol: The anticoagulatory activity of the test substances is determined in vitro in human and animal plasma (for example mouse, rat, rabbit, pig and dog plasma). To this end, blood is drawn off in a mixing ratio of sodium citrate/blood of 1:9 using a 0.11 molar sodium citrate solution as receiver. Immediately after the blood has been drawn off, it is mixed thoroughly and centrifuged at about 4000 g for 15 minutes. The supernatant is pipetted off.
The activated partial thromboplastin time (aPTT) is determined in the presence of varying concentrations of test substance or the corresponding solvent using a commercial test kit (C.K. Prest from Diagnostica Stago). The test compounds are incubated with the plasma and the PTT reagent (cephalin, kaolin) at 37° C. for 3 minutes. Coagulation is then started by addition of a 25 mM aqueous calcium chloride solution, and the time when coagulation occurs is determined. The concentration of test substance which brings about a 1.5-fold extension of the aPTT is determined.

T1 sequence (P03951 388-625 limits assumed): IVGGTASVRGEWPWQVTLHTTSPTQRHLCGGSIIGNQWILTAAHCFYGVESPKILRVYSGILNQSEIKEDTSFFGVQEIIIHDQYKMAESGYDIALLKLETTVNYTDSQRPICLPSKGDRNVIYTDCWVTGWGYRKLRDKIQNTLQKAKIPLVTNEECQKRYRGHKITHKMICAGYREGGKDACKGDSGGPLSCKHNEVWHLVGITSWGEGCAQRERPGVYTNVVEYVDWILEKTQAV
T1 sequence (P03951 19-387 partner limits assumed): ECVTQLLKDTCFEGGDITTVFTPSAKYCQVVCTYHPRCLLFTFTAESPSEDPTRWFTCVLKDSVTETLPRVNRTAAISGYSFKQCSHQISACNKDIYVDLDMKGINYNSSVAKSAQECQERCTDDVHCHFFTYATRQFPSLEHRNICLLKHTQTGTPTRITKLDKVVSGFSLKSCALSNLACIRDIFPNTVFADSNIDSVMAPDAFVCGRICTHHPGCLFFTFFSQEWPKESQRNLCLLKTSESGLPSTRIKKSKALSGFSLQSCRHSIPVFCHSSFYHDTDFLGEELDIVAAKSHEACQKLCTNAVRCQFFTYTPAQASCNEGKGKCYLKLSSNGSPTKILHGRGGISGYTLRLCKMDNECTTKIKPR

NC[C@H]1CC[C@H](C(=O)N[C@@H](Cc2cccc(-c3ccc(C(=O)N4CCN(CCO)CC4)cc3)c2)C(=O)Nc2ccc(-c3nnn[nH]3)cc2)CC1 [Example 48, trans-4-(Aminomethyl)-N-[(2S)-3-(4′-{[4-(2-hydroxyethyl)piperazin-1-yl]carbonyl}biphenyl-3-yl)-1-oxo-1-{[4-(1H-tetrazol-5-yl)phenyl]amino}propan-2-yl]cyclohexanecarboxamide hydrochloride]
IC50 [1]: 6.9 nM | aPTT [2]: 0.44 µmol/L

COCCOCCOCCNC(=O)c1ccc(-c2cccc(C[C@H](NC(=O)[C@H]3CC[C@H](CN)CC3)C(=O)Nc3ccc(-c4nnn[nH]4)cc3)c2)c(C)c1 [Example 22, 3′-[(2S)-2-({[trans-4-(Aminomethyl)cyclohexyl]carbonyl}amino)-3-oxo-3-{[4-(1H-tetrazol-5-yl)phenyl]amino}propyl]-N-{2-[2-(2-methoxyethoxy)ethoxy]ethyl}-2-methylbiphenyl-4-carboxamide hydrochloride]
IC50 [1]: 2.4 nM | aPTT [2]: 0.34 µmol/L

Cc1ccc(S(=O)(=O)N(C)C)cc1-c1cccc(C[C@H](NC(=O)[C@H]2CC[C@H](CN)CC2)C(=O)Nc2ccc(-c3nnn[nH]3)cc2)c1 [Example 4, trans-4-(Aminomethyl)-N-[(2S)-3-[5′-(dimethylsulphamoyl)-2′-methylbiphenyl-3-yl]-1-oxo-1-{[4-(1H-tetrazol-5-yl)phenyl]amino}propan-2-yl]cyclohexanecarboxamide hydrochloride]
IC50 [1]: 1.5 nM | aPTT [2]: 0.21 µmol/L

CC(C)N1CCC(NC(=O)c2cccc(-c3cccc(C[C@H](NC(=O)[C@H]4CC[C@H](CN)CC4)C(=O)Nc4ccc(-c5nnc(Cl)[nH]5)cc4)c3)c2)CC1 [Example 30, 3′-[(2S)-2-({[trans-4-(Aminomethyl)cyclohexyl]carbonyl}amino)-3-{[4-(3-chloro-4H-1,2,4-triazol-5-yl)phenyl]amino}-3-oxopropyl]-N-[1-(propan-2-yl)piperidin-4-yl]biphenyl-3-carboxamide hydrochloride]
IC50 [1]: 5.8 nM | aPTT [2]: 0.34 µmol/L

NC[C@H]1CC[C@H](C(=O)N[C@@H](Cc2cccc(-c3cccc(C(=O)N4CCOCC4)c3)c2)C(=O)Nc2ccc(-c3nnn[nH]3)cc2)CC1 [Example 47, trans-4-(Aminomethyl)-N-[(2S)-3-[3′-(morpholin-4-ylcarbonyl)biphenyl-3-yl]-1-oxo-1-{[4-(1H-tetrazol-5-yl)phenyl]amino}propan-2-yl]cyclohexanecarboxamide hydrochloride]
IC50 [1]: 5.2 nM | aPTT [2]: 0.34 µmol/L

NC[C@H]1CC[C@H](C(=O)N[C@@H](Cc2cccc(-c3ccc(C(=O)NCCN4CCCC4)cc3)c2)C(=O)Nc2ccc(-c3nnn[nH]3)cc2)CC1 [Example 41, 3′-[(2S)-2-({[trans-4-(Aminomethyl)cyclohexyl]carbonyl}amino)-3-oxo-3-{[4-(1H-tetrazol-5-yl)phenyl]amino}propyl]-N-[2-(pyrrolidin-1-yl)ethyl]biphenyl-4-carboxamide hydrochloride]
IC50 [1]: 8.4 nM | aPTT [2]: 0.32 µmol/L

Cc1nc(O)ccc1-c1cccc(C[C@H](NC(=O)[C@H]2CC[C@H](CN)CC2)C(=O)Nc2ccc(-c3nnn[nH]3)cc2)c1 [Example 98, N-alpha-{[trans-4-(Aminomethyl)cyclohexyl]carbonyl)}-3-(6-hydroxy-2-methylpyridin-3-yl)-N-[4-(1H-tetrazol-5-yl)phenyl]-L-phenylalaninamide hydrochloride]
IC50 [1]: 5.4 nM | aPTT [2]: 0.2 µmol/L

Cc1ccc(C[C@H](NC(=O)[C@H]2CC[C@H](CN)CC2)C(=O)Nc2ccc(-c3nnn[nH]3)cc2)cc1-c1cccc(C(=O)N2CCOCC2)c1 [Example 17, trans-4-(Aminomethyl)-N-[(2S)-3-[6-methyl-3′-(morpholin-4-ylcarbonyl)biphenyl-3-yl]-1-oxo-1-{[4-(1H-tetrazol-5-yl)phenyl]amino}propan-2-yl]cyclohexanecarboxamide hydrochloride]
IC50 [1]: 4.1 nM | aPTT [2]: 0.19 µmol/L

NC[C@H]1CC[C@H](C(=O)N[C@@H](Cc2cccc(-c3cnc(NC4CC4)nc3)c2)C(=O)Nc2ccc(-c3nnn[nH]3)cc2)CC1 [Example 82, N-alpha-{[trans-4-(Aminomethyl)cyclohexyl]carbonyl}-3-[2-(cyclopropylamino)pyrimidin-5-yl]-N-[4-(1H-tetrazol-5-yl)phenyl]-L-phenylalaninamide hydrochloride]
IC50 [1]: 3.4 nM | aPTT [2]: 0.14 µmol/L

Cc1ccc(S(=O)(=O)NCc2ccccc2)cc1-c1cccc(C[C@H](NC(=O)[C@H]2CC[C@H](CN)CC2)C(=O)Nc2ccc(-c3n[nH]c(=O)[nH]3)cc2)c1 [Example 13, trans-4-(Aminomethyl)-N-[(2S)-3-[5′-(benzylsulphamoyl)-2′-methylbiphenyl-3-yl]-1-oxo-1-{[4-(5-oxo-4,5-dihydro-1H-1,2,4-triazol-3-yl)phenyl]amino}propan-2-yl]cyclohexanecarboxamide hydrochloride]
IC50 [1]: 9.2 nM | aPTT [2]: 0.47 µmol/L

Cc1ccc(S(=O)(=O)NCc2ccccc2)cc1-c1cccc(C[C@H](NC(=O)[C@H]2CC[C@H](CN)CC2)C(=O)Nc2ccc(-c3noc(=O)[nH]3)cc2)c1 [Example 60, trans-4-(Aminomethyl)-N-[(2S)-3-[5′-(benzylsulphamoyl)-2′-methylbiphenyl-3-yl]-1-oxo-1-{[4-(5-oxo-4,5-dihydro-1,2,4-oxadiazol-3-yl)phenyl]amino}propan-2-yl]cyclohexanecarboxamide hydrochloride]
IC50 [1]: 1.4 nM | aPTT [2]: 0.21 µmol/L

Cc1cc(S(=O)(=O)NC2CCNCC2)ccc1-c1cccc(C[C@H](NC(=O)[C@H]2CC[C@H](CN)CC2)C(=O)Nc2ccc(-c3nnc(Cl)[nH]3)cc2)c1 [Example 55, trans-4-(Aminomethyl)-N-{(2S)-1-{[4-(3-chloro-4H-1,2,4-triazol-5-yl)phenyl]amino}-3-[2′-methyl-4′-(piperidin-4-ylsulphamoyl)biphenyl-3-yl]-1-oxopropan-2-yl}cyclohexanecarboxamide hydrochloride]
IC50 [1]: 4.3 nM | aPTT [2]: 0.14 µmol/L

CN1CCN(c2ncc(-c3cccc(C[C@H](NC(=O)[C@H]4CC[C@H](CN)CC4)C(=O)Nc4ccc(-c5nnc(Cl)[nH]5)cc4)c3)cn2)CC1 [Example 91, N-alpha-{[trans-4-(Aminomethyl)cyclohexyl]carbonyl}-N-[4-(3-chloro-4H-1,2,4-triazol-5-yl)phenyl]-3-[2-(4-methylpiperazin-1-yl)pyrimidin-5-yl]-L-phenylalaninamide hydrochloride]
IC50 [1]: 3.5 nM | aPTT [2]: 0.06 µmol/L

NC[C@H]1CC[C@H](C(=O)N[C@@H](Cc2cccc(-c3cnccc3Cl)c2)C(=O)Nc2ccc(-c3noc(=O)[nH]3)cc2)CC1 [Example 107, N-alpha-{[trans-4-(Aminomethyl)cyclohexyl]carbonyl}-3-(4-chloropyridin-3-yl)-N-[4-(5-oxo-4,5-dihydro-1,2,4-oxadiazol-3-yl)phenyl]-L-phenylalaninamide hydrochloride]
IC50 [1]: 6.2 nM | aPTT [2]: 0.7 µmol/L

CNC(=O)c1ccc(F)c(-c2cccc(C[C@H](NC(=O)[C@H]3CC[C@H](CN)CC3)C(=O)Nc3ccc(-c4nnn[nH]4)cc3)c2)c1 [Example 62, 3′-[(2S)-2-({[trans-4-(Aminomethyl)cyclohexyl]carbonyl}amino)-3-oxo-3-{[4-(1H-tetrazol-5-yl)phenyl]amino}propyl]-6-fluoro-N-methylbiphenyl-3-carboxamide hydrochloride]
IC50 [1]: 6.2 nM | aPTT [2]: 0.48 µmol/L
